Earlier results as cited in patent publication US20230201166A1, “METHODS FOR TREATING CANCER BY INHIBITING CARM1” (DANA-FARBER CANCER INSTITUTE, INC., priority 2020, published 2023).
Like-named read-outs stand apart in the source and are kept apart here.

How the values were obtained:
CARM1 [1] = molecular target: T1, CARM1 (Homo sapiens, UniProt Q86X55); details: read-out: CARM1 ICW IC50; cited from earlier work
T1 sequence (Q86X55 1-608): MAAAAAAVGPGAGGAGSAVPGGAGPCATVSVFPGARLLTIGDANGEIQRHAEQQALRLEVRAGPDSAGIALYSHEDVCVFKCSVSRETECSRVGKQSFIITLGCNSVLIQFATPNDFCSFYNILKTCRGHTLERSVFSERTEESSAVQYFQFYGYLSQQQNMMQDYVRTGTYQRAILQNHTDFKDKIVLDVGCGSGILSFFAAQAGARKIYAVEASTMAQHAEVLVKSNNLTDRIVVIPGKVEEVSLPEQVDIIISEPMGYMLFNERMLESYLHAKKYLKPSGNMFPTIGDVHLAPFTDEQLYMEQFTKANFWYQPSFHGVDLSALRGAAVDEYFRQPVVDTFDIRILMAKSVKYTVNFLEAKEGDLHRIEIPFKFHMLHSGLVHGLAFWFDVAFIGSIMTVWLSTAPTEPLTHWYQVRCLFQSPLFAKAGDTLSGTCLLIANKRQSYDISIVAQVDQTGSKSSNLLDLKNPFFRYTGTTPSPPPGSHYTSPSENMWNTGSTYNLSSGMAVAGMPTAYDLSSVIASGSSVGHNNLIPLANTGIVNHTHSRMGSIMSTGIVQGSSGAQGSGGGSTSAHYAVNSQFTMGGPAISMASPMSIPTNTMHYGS

CARM1 [2] = molecular target: T1, CARM1; details: read-out: CARM1 Biochemical IC50; cited from earlier work

## Cn1cnc2ccc(-c3cccc(OCC(O)CN)c3)nc21 (centres unmarked) [compound 1]
CARM1 [1]
  IC50: > 20 µM

## CC(C)n1ncc2c(N3CCOCC3)cc(-c3cccc(OCC(O)CN)c3)nc21 (centres unmarked) [compound 2]
CARM1 [1]
  IC50: 19 µM

## CNC[C@@H](O)COc1cc(-c2nc(-c3c(C)noc3C)c(C)c(N3CC4(CCN(C(=O)OC)CC4)C3)n2)ccc1Cl [compound 3]
CARM1 [2]
  IC50: > 1 µM
CARM1 [1]
  IC50: > 6.5 µM

## CNC[C@@H](O)COc1ccc(Cl)c(-c2nc(-c3c(C)noc3C)c(C)c(N3Cc4cnc(N5CCC5)nc4C3)n2)c1 [EPZ025654]
CARM1 [1]
  IC50: 0.011 µM
